# Assay results taken from patent US6949558B2, “Enhancement of taxane-based chemotherapy by a CDK1 antagonist” (Yale University, priority 2001, dated 2005).
# Columns and labels:
# HeLa cells = assay: Apoptosis by DNA content analysis and flow cytometry in HeLa cells; format: cell-based, human; conditions: HeLa
# Description: Cervical carcinoma HeLa (functionally inactivated p53) cells or breast carcinoma MCF-7 (wild type p53) cells were plated at 50-60% confluency in C-6 wells. Cells were treated with taxol at 0.2 μM for 0 to 32 hours in complete media.
# (§1) After 4, 8, 16, and 32 hours of incubation, without removing taxol from the wells, purvalanol A was added at three increasing concentrations, 1, 10 and 20 uM (FIG. 1). A control was performed with addition of purvalanol A at the 0-h time point.
# (§2) The cell populations were harvested at increasing time intervals from the 0-h time point or corresponding to the addition of purvalanol A. Apoptosis was analyzed by DNA content analysis and flow cytometry (DAPI staining).
# MCF-7 cells = assay: Apoptosis by DNA content analysis and flow cytometry in MCF-7 cells; format: cell-based, human
# Description: Cervical carcinoma HeLa (functionally inactivated p53) cells or breast carcinoma MCF-7 (wild type p53) cells were plated at 50-60% confluency in C-6 wells. […]
# as §1, §2
# [1] = system: p34^cdc2 kinase activity (MPM-2 epitope) in HeLa cells; assay: MPM-2 mitotic phosphoepitope expression (p34^cdc2 kinase activity) in HeLa cells; format: cell-based, human; conditions: HeLa; taxol 0.2 μM, sustained for a 32-h culture
# [2] = system: survivin expression in MCF-7 cells; assay: Survivin expression by Western blotting in MCF-7 cells; format: cell-based, human; conditions: taxol 2 μM (FIG. 19A)
# [3] = system: survivin expression in PC3 cells; assay: Survivin expression by Western blotting in PC3 cells; format: cell-based; conditions: taxol
# survivin promoter = assay: Survivin promoter-luciferase reporter expression in MCF-7 cells; format: cell-based, human; conditions: taxol 2 μM, all time intervals examined
# Description: Luciferase activity was determined after 0-24 h incubation at 37° C. on a Lumat luminometer (LB9510), and normalized to β-galactosidase activity used as an internal control.
# Luciferase values were normalized to β-galactosidase expression.
# [4] = system: survivin RNA in HeLa cells; assay: Northern hybridization of survivin RNA in HeLa cells; format: cell-based, human; conditions: presence or absence of taxol
# MCF-7 tumors = assay: Breast cancer xenograft model (Example 8); format: in vivo, CB17 SCID/beige mice; conditions: taxol alone 2.5 or 5 mg/kg, Purvalanol A alone 20 mg/kg, i.p.
# Description: Breast Cancer Xenograft Model: All experiments involving animals were approved by the institutional animal cure and use committee. Six- to eight-week old female CB17 SCID/beige mice (Taconic Farms, Germantown, N.Y.) were injected s.c. into the flanks with 2.5×10^6 exponentially growing MCF-7 cells in 250 μl of sterile PBS, pH 7.4. […] Animals were injected i.p. with taxol alone (2.5 or 5 mg/kg), Purvalanol A alone (20 mg/kg) or the sequential combination of taxol-Purvalanol A for two consecutive days each divided by a day with no treatment. For single agent treatment, vehicle was given in place of taxol or Purvalanol A with the same schedule. Each complete cycle was separated by 2 d without treatment. Tumor volume was measured in the three dimensions with a caliper. Animals with tumor burden >3000 mm^3 were sacrificed (Survival).
# Statistical Analysis: All in vitro experiments were repeated at least three times. […] The survival curves were compared using the log-rank test. This test generates a P value testing the null hypothesis that the survival curves are identical in the overall populations.
# caspase-9 = assay: Caspase-9 processing by Western blotting in HeLa cells; conditions: taxol 0.2 μM, Purvalanol A 20 μM or sequential combination, 16 h
# [5] = taxol 2 μM, adriamycin 100 nM, cis-platin 3 μM (Example 7)
smiles,measurement,setting,value
"CC(=O)O[C@H]1C(=O)[C@@]2(C)[C@H]([C@H](OC(=O)c3ccccc3)[C@]3(O)C[C@H](OC(=O)[C@H](O)[C@@H](NC(=O)c4ccccc4)c4ccccc4)C(C)=C1C3(C)C)[C@]1(OC(C)=O)CO[C@@H]1C[C@@H]2O [taxol, Paclitaxel]",cell population with hypodiploid (apoptotic) DNA content / cell death,"HeLa cells; 16 h, taxol 0.2 μM, Purvalanol A 20 μM, alone or sequential",16%
same,hypodiploid cells,HeLa cells; taxol 0.2 μM alone (Example 1),~10%
same,apoptosis (hypodiploid cell fraction),HeLa cells; taxol 0.2 μM for 0 to 32 hours,virtually no apoptosis
same,cell cycle arrest,"HeLa cells; taxol 0.2 μM or purvalanol A 1-20 uM alone (Examples 1, 2)",uniform M arrest
same,apoptosis,"HeLa cells; taxol 0.2 μM, up to 32 h (Example 8)",negligible induction of apoptosis
same,apoptosis (hypodiploid cell fraction),MCF-7 cells; taxol 0.2 μM for 0 to 32 hours,virtually no apoptosis
same,cell cycle arrest,MCF-7 cells; taxol 0.2 μM for 0 to 32 hours,uniform M arrest
same,apoptosis,MCF-7 cells; [5],negligible apoptosis
same,cell cycle arrest,MCF-7 cells; [5],G2/M arrest
same,cell cycle arrest,MCF-7 cells; taxol 0.2-2 μM (Example 8),sustained (48-72 h) mitotic arrest
same,p34^cdc2 kinase activity,[1],elevated p34^cdc2 kinase activity
same,increased expression of survivin,[2],3-4 fold
same,survivin expression,[3],increased expression of survivin
same,survivin gene expression (promoter-luciferase),survivin promoter,significantly inhibited survivin gene expression
same,survivin RNA levels,[4],no significant changes in survivin RNA levels
same,kinetics of tumor growth,MCF-7 tumors,did not affect the kinetics of tumor growth
same,caspase-9 processing,caspase-9,did not result in significant caspase-9 cleavage
